From patent US12172995B2, “Substituted indole and indazole compounds” (BRISTOL-MYERS SQUIBB COMPANY, priority 2018, dated 2024)
pIC50: −log10 of the molar value.

Experiments:
Format in all cases: cell-based
[1] = molecular target: T1, human TLR8 (Homo sapiens, UniProt Q9NR97); test: TLR8 inhibition reporter assay (HEK-Blue SEAP); conditions: HEK-Blue cells overexpressing human TLR8, stimulated with R848 15.9 μM, 22 hour incubation
T1 construct: host or cells: HEK-Blue cells
T1 sequence (Q9NR97 27-1041): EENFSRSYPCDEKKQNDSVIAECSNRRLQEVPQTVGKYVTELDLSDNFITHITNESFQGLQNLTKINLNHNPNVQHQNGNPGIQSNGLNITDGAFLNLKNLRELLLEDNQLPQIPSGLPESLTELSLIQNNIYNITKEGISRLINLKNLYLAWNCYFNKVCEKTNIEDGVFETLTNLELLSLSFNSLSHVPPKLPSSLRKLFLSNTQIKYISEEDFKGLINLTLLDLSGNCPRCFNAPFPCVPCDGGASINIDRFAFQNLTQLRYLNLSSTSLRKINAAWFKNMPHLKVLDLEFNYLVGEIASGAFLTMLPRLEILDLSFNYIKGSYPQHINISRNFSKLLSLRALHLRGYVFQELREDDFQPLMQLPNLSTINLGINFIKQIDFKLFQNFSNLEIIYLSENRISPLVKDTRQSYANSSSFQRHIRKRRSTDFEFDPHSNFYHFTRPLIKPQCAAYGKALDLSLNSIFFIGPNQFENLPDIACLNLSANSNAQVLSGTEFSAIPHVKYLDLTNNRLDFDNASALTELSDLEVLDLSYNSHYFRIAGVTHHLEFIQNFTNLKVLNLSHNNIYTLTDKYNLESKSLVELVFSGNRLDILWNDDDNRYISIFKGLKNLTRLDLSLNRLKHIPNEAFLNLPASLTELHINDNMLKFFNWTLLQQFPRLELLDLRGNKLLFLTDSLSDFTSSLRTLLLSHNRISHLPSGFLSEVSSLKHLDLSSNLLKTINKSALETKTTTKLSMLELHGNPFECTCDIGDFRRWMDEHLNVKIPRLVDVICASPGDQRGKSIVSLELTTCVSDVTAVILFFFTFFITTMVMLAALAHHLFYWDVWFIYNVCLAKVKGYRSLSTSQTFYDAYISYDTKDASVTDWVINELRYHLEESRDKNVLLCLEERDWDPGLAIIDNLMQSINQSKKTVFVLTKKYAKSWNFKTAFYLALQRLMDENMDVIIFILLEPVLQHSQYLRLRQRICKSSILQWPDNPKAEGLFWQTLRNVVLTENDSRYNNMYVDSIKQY
In short: (§1)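 Cells are seeded, given test compound across 0.05 nM to 50 μM, and after 30 min at room temperature stimulated with the receptor's agonist (gardiquimod 7.5 μM, R848 15.9 μM or ODN2006 5 nM for TLR7, 8, 9). SEAP is measured after 22 h at 37 °C.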

[2] = molecular target: T2, human TLR7 (Homo sapiens, UniProt Q9NYK1); test: TLR7 inhibition reporter assay (HEK-Blue SEAP); conditions: HEK-Blue cells overexpressing human TLR7, stimulated with gardiquimod 7.5 μM, 22 hour incubation
T2 construct: host or cells: HEK-Blue cells
T2 sequence (Q9NYK1 27-1049): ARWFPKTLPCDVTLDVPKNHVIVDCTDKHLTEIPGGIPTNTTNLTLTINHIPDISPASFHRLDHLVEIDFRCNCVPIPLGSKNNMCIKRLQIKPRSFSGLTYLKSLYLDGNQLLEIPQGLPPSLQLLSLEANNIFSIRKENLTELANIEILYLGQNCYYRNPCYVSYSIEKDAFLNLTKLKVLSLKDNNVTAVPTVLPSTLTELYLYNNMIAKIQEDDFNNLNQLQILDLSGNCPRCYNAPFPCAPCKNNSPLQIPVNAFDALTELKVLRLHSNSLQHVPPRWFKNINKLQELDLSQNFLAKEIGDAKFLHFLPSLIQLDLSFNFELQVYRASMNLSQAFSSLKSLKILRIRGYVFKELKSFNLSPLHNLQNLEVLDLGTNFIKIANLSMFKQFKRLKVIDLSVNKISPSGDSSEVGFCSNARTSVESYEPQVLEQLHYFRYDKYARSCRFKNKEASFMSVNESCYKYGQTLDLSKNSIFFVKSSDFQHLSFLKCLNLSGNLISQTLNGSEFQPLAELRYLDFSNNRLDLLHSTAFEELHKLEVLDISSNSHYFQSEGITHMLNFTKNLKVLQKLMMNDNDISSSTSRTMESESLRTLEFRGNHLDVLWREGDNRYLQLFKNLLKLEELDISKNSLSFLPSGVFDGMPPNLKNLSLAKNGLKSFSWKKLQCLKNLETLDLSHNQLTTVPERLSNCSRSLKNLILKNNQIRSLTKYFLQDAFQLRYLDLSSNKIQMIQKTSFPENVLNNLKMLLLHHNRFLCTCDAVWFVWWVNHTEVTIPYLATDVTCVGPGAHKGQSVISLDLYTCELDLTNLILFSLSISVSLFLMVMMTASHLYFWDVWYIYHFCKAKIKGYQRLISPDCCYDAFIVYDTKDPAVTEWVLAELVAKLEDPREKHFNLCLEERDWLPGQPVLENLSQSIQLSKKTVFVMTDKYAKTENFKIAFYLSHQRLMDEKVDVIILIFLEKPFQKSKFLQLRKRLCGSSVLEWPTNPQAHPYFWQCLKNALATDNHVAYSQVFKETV
In short: as §1

[3] = molecular target: T3, human TLR9 (Homo sapiens, UniProt Q9NR96); test: TLR9 inhibition reporter assay (HEK-Blue SEAP); conditions: HEK-Blue cells overexpressing human TLR9, stimulated with ODN2006 5 nM, 22 hour incubation
T3 construct: host or cells: HEK-Blue cells
T3 sequence (Q9NR96 26-1032): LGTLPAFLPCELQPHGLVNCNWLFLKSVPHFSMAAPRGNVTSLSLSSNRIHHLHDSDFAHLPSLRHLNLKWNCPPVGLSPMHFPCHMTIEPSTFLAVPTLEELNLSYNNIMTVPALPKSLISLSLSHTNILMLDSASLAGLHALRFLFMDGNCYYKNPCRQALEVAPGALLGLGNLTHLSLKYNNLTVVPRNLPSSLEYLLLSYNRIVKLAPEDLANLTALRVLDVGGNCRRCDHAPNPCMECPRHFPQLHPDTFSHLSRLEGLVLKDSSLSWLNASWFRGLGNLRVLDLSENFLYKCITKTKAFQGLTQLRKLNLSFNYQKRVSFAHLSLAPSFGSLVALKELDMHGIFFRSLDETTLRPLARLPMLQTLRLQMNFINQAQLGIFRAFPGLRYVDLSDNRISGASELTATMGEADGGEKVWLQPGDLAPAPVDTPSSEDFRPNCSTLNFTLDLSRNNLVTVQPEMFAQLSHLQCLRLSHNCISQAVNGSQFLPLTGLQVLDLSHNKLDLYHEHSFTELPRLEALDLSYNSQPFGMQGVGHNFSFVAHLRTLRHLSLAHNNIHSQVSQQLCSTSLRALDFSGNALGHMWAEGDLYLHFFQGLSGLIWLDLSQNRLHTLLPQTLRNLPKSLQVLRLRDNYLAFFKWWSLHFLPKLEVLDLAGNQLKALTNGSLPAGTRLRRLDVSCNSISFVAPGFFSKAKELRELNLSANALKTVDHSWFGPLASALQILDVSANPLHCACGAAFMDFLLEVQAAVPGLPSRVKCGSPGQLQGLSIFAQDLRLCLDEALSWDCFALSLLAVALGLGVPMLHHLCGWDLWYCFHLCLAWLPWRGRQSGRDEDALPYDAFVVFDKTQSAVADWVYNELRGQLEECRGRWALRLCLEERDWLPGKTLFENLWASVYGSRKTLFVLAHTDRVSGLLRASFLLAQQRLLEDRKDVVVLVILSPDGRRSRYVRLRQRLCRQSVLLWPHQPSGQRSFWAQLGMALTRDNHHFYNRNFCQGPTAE
In short: as §1

Structure (SMILES)	pIC50 [1]	pIC50 [2]	pIC50 [3]
Cc1cc(-c2cc3[nH]nc(C4CCC(N5CCC6(CCOC6)C5)CC4)c3cc2C(C)C)cn2ncnc12 (single isomer, unassigned) [Example 209, 7-(4-(5-isopropyl-6-(8-methyl-[1,2,4]triazolo[1,5-a]pyridin-6-yl)-1H-indazol-3-yl)cyclohexyl)-2-oxa-7-azaspiro[4.4]nonane]	10.30	9.21	5.10
Cc1cc(-c2cc3[nH]nc(C4CCC(N5CCC(F)C5)CC4)c3cc2C(C)C)cn2ncnc12 (stereo not drawn) [Example 164, 6-(3-(4-(3-fluoropyrrolidin-1-yl)cyclohexyl)-5-isopropyl-1H-indazol-6-yl)-8-methyl-[1,2,4] triazolo[1,5-a]pyridine]	10.00	8.82	5.19
Cc1cc(-c2cc(C)c3ncnn3c2)cc2[nH]cc(C3CCNCC3)c12 [Example 16, 8-methyl-6-(4-methyl-3-(piperidin-4-yl)-1H-indol-6-yl)-[1,2,4]triazolo[1,5-a]pyridine]	7.45	8.48	5.85
Cc1cc(-c2cc3[nH]nc(C4CCC(N(C)C)CC4)c3cc2C(C)C)cn2ncnc12 (stereo not drawn) [Example 115, 4-(5-isopropyl-6-(8-methyl-[1,2,4]triazolo[1,5-a]pyridin-6-yl)-1H-indazol-3-yl)-N,N-dimethylcyclohexan-1-amine]	10.00	9.22	5.17
Cc1cc(-c2cc(C)c3ncnn3c2)cc2[nH]nc(OC3CCC(NCC(=O)N(C)C)CC3)c12 (single isomer, unassigned) [Example 185, N,N-dimethyl-2-((4-((4-methyl-6-(8-methyl-[1,2,4]triazolo[1,5-a]pyridin-6-yl)-1H-indazol-3-yl)oxy)cyclohexyl)amino)acetamide]	8.02	7.68	5.56
Cc1cc2c(C3CCNCC3)c[nH]c2cc1-c1cc(C)c2ncnn2c1 [Example 1, 8-methyl-6-(5-methyl-3-(piperidin-4-yl)-1H-indol-6-yl)-[1,2,4]triazolo[1,5-a]pyridine]	8.41	8.39	6.18
Cc1cc2c(OC3CCNCC3)n[nH]c2cc1-c1cc(C)c2ncnn2c1 [Example 167, 8-methyl-6-(5-methyl-3-(piperidin-4-yloxy)-1H-indazol-6-yl)-[1,2,4]triazolo[1,5-a]pyridine]	9.70	8.27	6.20
Cc1cc(-c2cc3[nH]nc(C4CCC(N5CC6(C5)CS(=O)(=O)C6)CC4)c3cc2C(C)C)cn2ncnc12 (single isomer, unassigned) [Example 143, 6-(4-(5-isopropyl-6-(8-methyl-[1,2,4]triazolo[1,5-a]pyridin-6-yl)-1H-indazol-3-yl)cyclohexyl)-2-thia-6-azaspiro[3.3]heptane 2,2-dioxide]	8.82	8.46	5.17
COc1cc(-c2cc3[nH]nc(C4CCC(N(C)C)CC4)c3cc2C(C)C)cn2ncnc12 (single isomer, unassigned) [Example 140, 4-(5-isopropyl-6-(8-methoxy-[1,2,4]triazolo[1,5-a]pyridin-6-yl)-1H-indazol-3-yl)-N,N-dimethylcyclohexan-1-amine]	10.00	9.70	5.46
Cc1cc(-c2cc(C)c3ncnn3c2)cc2[nH]nc(C3CCCN(CC(=O)N(C)C)C3)c12 (stereo not drawn) [Example 59, N,N-dimethyl-2-(3-(4-methyl-6-(8-methyl-[1,2,4]triazolo[1,5-a]pyridin-6-yl)-1H-indazol-3-yl)piperidin-1-yl)acetamide]	7.36	7.98	5.49
CCc1cc2c(C3CCN(CCC(F)(F)F)CC3)n[nH]c2cc1-c1cc(C)c2ncnn2c1 [Example 108, 6-(5-ethyl-3-(1-(3,3,3-trifluoropropyl)piperidin-4-yl)-1H-indazol-6-yl)-8-methyl-[1,2,4] triazolo[1,5-a]pyridine]	9.70	8.25	4.63
Cc1cc2c(C3CCNCC3)n[nH]c2cc1-c1cc(C)c(=O)n(C)c1 [Example 25, 1,3-dimethyl-5-(5-methyl-3-(piperidin-4-yl)-1H-indazol-6-yl)pyridin-2(1H)-one]	7.98	6.58	5.65
Cc1cc(-c2cc3[nH]nc(C4CCC(N5CC(C)(O)C5)CC4)c3cc2C(C)C)cn2ncnc12 (stereo not drawn) [Example 154, 1-(4-(5-isopropyl-6-(8-methyl-[1,2,4]triazolo[1,5-a]pyridin-6-yl)-1H-indazol-3-yl)cyclohexyl)-3-methylazetidin-3-01]	9.70	9.30	4.80
Cc1cc(-c2cc(C)c3ncnn3c2)cc2[nH]nc(OC3CCC(NC4CC4)CC3)c12 (single isomer, unassigned) [Example 190, N-cyclopropyl-4-((4-methyl-6-(8-methyl-[1,2,4]triazolo[1,5-a]pyridin-6-yl)-1H-indazol-3-yl)oxy)cyclohexan-1-amine]	8.72	8.80	5.35
